Assay results reported in patent publication US20160287602A1, “METHODS FOR PROMOTING MOTOR NEURON SURVIVAL” (PRESIDENT AND FELLOWS OF HARVARD COLLEGE, priority 2013, published 2016).
“Also recorded” adds a separate entry of the source.

Experiments:
[1] = tested on: SOD1^G93A (SOD1^G93A/Hb9::GFP) mouse ESC derived MNs; experiment: MN survival after trophic factor withdrawal, mixed culture; format: cell-based
Source text: In the present study, we have screened highly specific small molecule kinase inhibitors to identify those which could promote MN survival. For the screen, we generated MNs from wild-type (Hb9::GFP) and SOD1^G93A (SOD1^G93A/Hb9::GFP) mouse ESCs using published protocols (Di Giorgio et al., 2007). We withdrew trophic factors as a standard method to induce MN death. Cell plating density as well as timing for initiation and duration of trophic factor withdrawal were used exactly as published to achieve ˜80% MN death in 3 days (FIG. 1A) (Yang et al., 2013). […] We continued to work with this compound class as it reproducibly promoted survival of both MNs types and the effect was robust. We further reasoned that since this compound class promoted survival of both MN types, the probability of its working in other contexts such as on human MNs and in the ALS mouse model was maximum.
High expression of Aurora kinases is associated with various types of cancer (Sen et al., 1997; Reichardt et al., 2003; Tchatchou et al., 2007) and there are many AKIs including VX-680 and ZM447439 that are in clinical trials for anti-cancer drug development.
Trophic factors were removed and ZM447439 was added to the cultures as previously and MN survival was analyzed on day 7, 14 & 21.

[2] = tested on: synaptophysin in Hb9::GFP MN cultures; experiment: Synaptophysin immunoblotting; format: cell-based, mouse
Hb9::GFP MNs = experiment: MN survival in co-culture with primary WT or SOD1^G93A astrocytes; format: cell-based, mouse; details: Hb9::GFP MNs on WT or SOD1^G93A astrocytes
Description: (§1) We sought to examine whether AKIs decrease the toxic effect of SOD1^G93A mutant astrocytes. We first cultured primary astrocytes from wild type (WT) and SOD1^G93A mice and plated FACS purified MNs on top. We observed significant cell death when MNs were cultured on mutated astrocytes compared to WT astrocytes. ZM447439 improved both Hb9::GFP and SOD1^G93A/Hb9::GFP MN survival.

SOD1^G93A/Hb9::GFP MNs = experiment: as above; format: cell-based, mouse
Description: as §1

Prkarlb = experiment: Prkar1b immunostaining in surviving MNs; format: cell-based, mouse; details: absence of TFs
[3] = tested on: Hb9::GFP and SOD1^G93A/Hb9::GFP MNs; experiment: Microarray analysis of gene expression in MNs; format: cell-based, mouse; details: compound in the absence of TFs versus -TF
Source text: Next we sought to investigate the mechanism by which AKIs promote MN survival. To evaluate this comprehensively we performed microarray analysis to compare gene expression between MNs cultured with: 1) Trophic factors (+TF), 2) No trophic factors (−TF), 3) VX-680 in the absence of TFs, and 4) ZM447439 in the absence of TFs. […] Gene expression was compared between +TF and −TF, VX-680 and −TF, and ZM447439 and −TF. With a cut off of more than 3 fold difference, there were 85 genes overlapping in all three comparison in Hb9::GFP MNs and 57 in SOD1^G93A/Hb9::GFP MNs. We found 39 overlapping genes when we compared both types of MNs (FIG. 5B). […] We analyzed the shortlist of 39 genes by using DAVID functional annotation bioinformatics microarray analysis software to find the potential pathways involved in MN survival. […] PKA is known to phosphorylate BAD protein, leading to increased cell survival (Jose M. LIZCANO et al., 2000; Julian Downward et al., Nature cell biology 1999; Komaki S et al., Neurosci Lett 2012). […] We further investigated this pathway by lentivirus knockdown of Prkarlb.

[4] = tested on: HuES-3/Hb9::GFP human ESC derived MNs; experiment: Human ESC derived MN survival after trophic factor withdrawal; format: cell-based; details: trophic factors withdrawn
Source text: (§2) We generated MNs from a human ESC line expressing an HB9::GFP transgene [HuES-3/Hb9::GFP (Di Giorgio et al., 2008)]. Human ESC derived MN cultures were pre-treated with AraC to eliminate progenitor cells. We induced MN death by again withdrawing trophic factors. […] We also investigated the toxic effect of SOD1^G93A astrocytes on human ESC derived MN survival. We found significant death of human MNs cultured on mutant astrocytes.

[5] = tested on: human ESC derived MNs on SOD1^G93A astrocytes; experiment: Human ESC derived MNs co-cultured with astrocytes; format: cell-based
Source text: as §2

[6] = tested on: wild-type (Hb9::GFP) mouse ESC derived MNs; experiment: MN survival after trophic factor withdrawal, mixed culture; format: cell-based; details: in presence of neurotrophic factors; day 7, 14 & 21

For COc1cc2c(Nc3ccc(NC(=O)c4ccccc4)cc3)ncnc2cc1OCCCN1CCOCC1 [ZM447439, N-[4-[[6-Methoxy-7-[3-(4-morpholinyl)propoxy]-4-quinazolinyl]amino]phenyl]benzamide], the “basal MN death” value ([1]; in presence of neurotrophic factors, day 7, 14 & 21) was “prevented”, the “survival of MNs (number of surviving MNs)” value ([1]; trophic factor withdrawal, 3 days, SOD1^G93A/Hb9::GFP MNs) was “consistently increased the survival of MNs; also recorded: most potent and robust at increasing survival” and the “long term MN survival” value ([1]; trophic factors removed, day 7, 14 & 21, SOD1^G93A/Hb9::GFP MNs) was “increased survival”. The “expression of synaptic protein synaptophysin” value [2] was “increased expression”, the “MN survival in astrocyte co-culture” value (Hb9::GFP MNs) was “improved” and the “MN survival in astrocyte co-culture” value (SOD1^G93A/Hb9::GFP MNs; SOD1^G93A/Hb9::GFP MN co-cultured with SOD1^G93A astrocytes) was “less of an increase in survival”. The “MN survival in astrocyte co-culture” value (SOD1^G93A/Hb9::GFP MNs; SOD1^G93A/Hb9::GFP MNs on WT or SOD1^G93A astrocytes) was “improved”, the “levels of Prkarlb” value (Prkarlb) was “increased levels” and the “expression of genes related to synapse formation (Syt1, Snap25 and Sv2c, Map2 and Dcx)” value [3] was “upregulated”. The “human MN survival, comparison of VX-680 and ZM447439” value ([4]; FIG. 7A) was “more effective and potent in preventing MN death”, the “human MN survival” value ([4]; AraC pre-treated cultures) was “rescued human MN death” and the “death of human MNs cultured on mutant astrocytes” value ([5]; SOD1^G93A astrocytes co-culture) was “completely rescued; also recorded: decreases the toxic effect”. The “size of human MN” value ([5]; co-cultured with both wild-type and mutant astrocytes) was “significantly increased” and the “basal MN death” value [6] was “prevented”.
